According to US8980952B2, “Methods for treating brain swelling with a compound that blocks a non-selective cation channel” (University of Maryland, Baltimore, priority 2002, dated 2015):
Values joined by “and” are separate entries in the source; they are usually repeats but may differ in a detail not shown here. Equal values may be shown once. “Also recorded” adds a separate entry of the source. Read-outs that look alike come from different tables or passages of the source.

What was measured:
[1] = test system: native reactive astrocytes (NRAs); assay: Current clamp recording of membrane potential, nystatin-perforated patch; assay type: cell-based, rat
[2] = test system: native reactive astrocytes (NRAs); assay: Cell blebbing and swelling after ATP depletion (SEM, phase contrast microscopy); assay type: cell-based, rat
[3] = test system: native reactive astrocytes (NRAs); assay type: cell-based, rat
MMP-9 & MMP-2 = assay: Zymography of gelatinase activity of recombinant enzyme and stroke tissue; assay type: biochemical; details: glibenclamide 10 μM; MMP inhibitor II 300 nM
Description: Activation of MMP-9 & MMP-2 in stroke tissue was compared to controls. […] Calbiochem). Next, the supernatants underwent a gelatinase purification process with gelatin-Sepharose 4B (Pharmacia), and Zymography was performed on the purified supernatants in sodium dodecyl sulfate gels containing gelatin (Rosenberg, 1994). Dried gels were scanned with a transparency scanner, and images were analyzed by densitometry. The relative lysis of an individual sample was expressed as the integrated density value of its band and divided by the protein content of the sample.

[4] = Thromboembolic stroke with tPA reperfusion at 6 hr, hemorrhagic conversion; assay type: in vivo, rat; details: 24 hr after stroke, co-treated with tPA 10 mg/kg i.v. at 6 hr; loading dose 1.5 μg/kg i.v. plus s.c. pump
[5] = Rodent model of stroke, glibenclamide vs. saline by subcutaneous mini-pump; assay type: in vivo, rat
[6] = test system: native reactive astrocytes (NRAs); assay: Necrotic/apoptotic cell death by propidium iodide and annexin V staining; assay type: cell-based, rat
[7] = Thromboembolic (TE) MCA stroke model; assay type: in vivo, rat; details: for Infarct volume, percent of hemisphere volume: 75 ng/hr
gliotic capsule = details: for GFAP response / gliotic capsule: glibenclamide 1 μM or diazoxide 10 μM at 0.5 μl/hr × 7 days
SUR1 = SUR1 knockdown by antisense oligodeoxynucleotide infusion at gelfoam implantation site; assay type: in vivo, rat; details: ODN infused 14 days; vs. scrambled sequence ODN
[8] = glibenclamide 1 μM with Na azide 1 mM

For [N-]=[N+]=[N-] [NaN3, Sodium azide], the Em after depolarization [1] was −4.3±0.9 mV and the “Time to apparent blebbing after exposure” value [2] was 10 to 15 min and 7 to 10 min.

In the case of “charybdotoxin: toxin partially blocking large conductance Ca2+-activated K+ channel currents”, the “Block of large outward currents” value [3] is reported as “partially blocked”.

For Nc1ccncc1 [4-AP, 4-aminopyridine], the “Outward current remaining in presence of charybdotoxin” value [3] was “further blocked”.

In the case of COc1ccc(Cl)cc1C(=O)NCCc1ccc(S(=O)(=O)NC(=O)NC2CCCCC2)cc1 [glibenclamide], the Gelatinase activity (MMP-9 & MMP-2) is reported as “did not directly inhibit gelatinase activity”, the “Animals with hemorrhagic conversion” value [4] is reported as 1 of 6 and ⅕ and the “Reduction of edema with added glucose” value (8 hr after MCAO, supplemental glucose 1 gm/kg i.p. at 4 hr) is reported as “just as effective in reducing edema”. The “Rise of water in involved hemisphere” value (8 hr after stroke, saline 3.4%) was 2.0%, the “Rise of water in TTC(+) tissue” value (8 hr after stroke, saline 5.4%) was 2.5% and the “Water in TTC(−) tissue of involved hemisphere” value (8 hr after stroke, saline 78.7±1.0%) was 78.6±0.4%. The “Water content of involved hemisphere” value (8 hr after stroke, saline 81.3±0.5%, control hemisphere 77.9±0.2%) was 79.9±0.3%, the “Water in TTC(+) tissue of involved hemisphere” value (8 hr after stroke, saline 83.4±1.1%) was 80.5±0.3% and the Serum glucose (rat, in vivo) was 93 ± 3 mg/dL. The “Mortality during 7 days after MCA stroke” value (rat, in vivo, sc) was 24%, the “3-day mortality after stroke” value ([5]; rat, in vivo, sc) was 28% and the “Excess water in stroke hemisphere” value ([5]; vs. saline-treated rats, n=5 per group) was “only half as much excess water”. The “Blebbing on NaN3 in presence of glibenclamide” value ([2]; pretreated cells, observed 30 min) was “does not cause blebbing; also recorded: remained phase bright with no pathological deterioration”, the “annexin V labeling (apoptotic death)” value [6, 8] was “not significantly different” and the “number of PI-positive cells (necrotic death)” value [6, 8] was “dramatically decreased; also recorded: largely prevented”. The “Infarct volume, percent of hemisphere volume” value ([7]; 2 days after MCAO) was 16.7±2.2%, the “Stroke volume, percent of hemisphere volume” value ([7]; 48 hr after stroke, 10 male rats per group) was 15.5±2.3% and the “Infarct volume, percent of hemisphere volume” value ([7]; 7 days after MCAO) was 15.2±1.2%. For the same compound, the “Stroke volume vs. saline at 48 hr” value ([7]; begun 2 hr after stroke, loading dose 3.3 μg/kg i.p.) was “significant reduction in stroke volume”, the “Stroke volume vs. saline at 48 hr” value ([7]; begun 4 hours after MCAO, loading dose 3.3 μg/kg i.p.) was “not statistically significant” and the “Stroke volume vs. saline at 48 hr” value ([7]; begun 4 hours after MCAO, loading dose 33.0 μg/kg i.p. with glucose 1 gm/kg) was “statistically significant reductions in stroke volume”. For the same compound, the “Stroke volume vs. saline at 48 hr” value ([7]; begun 6 hours after MCAO, loading dose 33.0 μg/kg i.p. with glucose 1 gm/kg) was “statistically significant reductions in stroke volume”, the “Stroke volume vs. saline at 48 hr” value ([7]; infusion 75 ng/hr begun immediately after stroke, no loading dose) was “significant reduction in stroke volume” and the “GFAP response / gliotic capsule” value (gliotic capsule) was “well defined gliotic capsule”. For the same compound, the “GFAP response / gliotic capsule” value (gliotic capsule; listed as Glibenclamide) was “reduced the overall injury response” and the “Inflammatory response / PMN infiltration” value (gliotic capsule; infusion into site of gelatin sponge) was “minimized the inflammatory response”.

With “iberiotoxin: toxin partially blocking large conductance Ca2+-activated K+ channel currents (QFTDVDCSVSKECWSVCKDLFGVDRGKCMGKKCRCYQ)” the “Block of large outward currents” value [3] was “partially blocked”.

For CC[N+](CC)(CC)CC.[Cl-] [TEA, tetraethylammonium chloride], the “Block of large outward currents” value [3] was “partially blocked”.

For OC[C@@H](O)[C@@H](O)[C@H](O)[C@H](O)CO [mannitol], the “Effect on NaN3-induced depolarization” value ([1]; 50 mM mannitol) was “neither the time course nor the magnitude of the depolarization is affected” and the “Delay of bleb formation after exposure to NaN3” value ([2]; 50 mM mannitol, 350 mOsm) was > 30 min.

With “SUR1KD: SUR1 antisense oligodeoxynucleotide 5′-GGCCGAGTGGTTCTCGGT-3′ (SEQ ID NO: 9) (DNA, backbone not given here)” the “Depolarization on application of Na azide” value [1] was 8.7±1.7 mV, the “Membrane blebbing after Na azide” value ([2]; cells from SUR1KD) was “not observed” and the “SUR1 expression in gliotic capsule (immunoblot)” value (SUR1) was “significant reduction in SUR1 expression”.

In the case of C[C@@H]1O[C@@H](O[C@H]2C[C@@H](O)[C@]3(CO)[C@H]4[C@H](O)C[C@]5(C)[C@@H](C6=CC(=O)OC6)CC[C@]5(O)[C@@H]4CC[C@]3(O)C2)[C@H](O)[C@H](O)[C@H]1O [ouabain], the Depolarization ([1]; 1 mM ouabain) is reported as “small reversible depolarization”.

With CC1=NS(=O)(=O)c2cc(Cl)ccc2N1 [diazoxide] the “Blebbing with channel opener alone” value ([2]; no ATP depletion) was “blebbing occurs even without ATP depletion; also recorded: developed progressive blebbing consistent with cytotoxic edema” and the “Necrotic death by channel opener” value [6] was “necrotic death can also be induced by diazoxide”.
